Activity calls are given as the source filed them. No cut-off for these calls is given here.
Columns and labels:
HT-29 [1] = assay: Antiproliferative activity against human HT-29 cells over expressing GLUT1 measured after 72 hrs by MTT assay; assay type: functional, cell-based; conditions: HT-29, 72 h
Hep 3B2 = assay: Antiproliferative activity against human Hep3B cells measured after 72 hrs by MTT assay; assay type: functional, cell-based
MCF7 = assay: Antiproliferative activity against human MCF7 cells over expressing GLUT1 measured after 72 hrs by MTT assay; assay type: functional, cell-based; conditions: MCF7, 72 h
[2] = Selectivity ratio of IC50 for human Hep3B cells to IC50 for human MCF7 cells; assay type: functional
[3] = Selectivity ratio of IC50 for human Hep3B cells to IC50 for human HT-29 cells; assay type: functional
HT-29 [4] = assay: Antiproliferative activity against human HT-29 cells over expressing GLUT1 assessed as cell viability at 8 uM measured after 48 hrs by MTT assay relative to control; assay type: functional; conditions: read-out: Activity
Tubulin (Homo sapiens) [5] = biological target: T1, Tubulin (Homo sapiens) (UniProt P68371+Q9H4B7+P0DPH7+P68366+Q13509+Q71U36+P04350+Q3ZCM7+P07437+P68363+Q9BQE3+Q6PEY2+Q13885+Q9BVA1+Q9BUF5); assay: Inhibition of tubulin polymerization in human A549 cells assessed as appearance of short microtubule at 0.766 uM measured after 24 hrs by immunofluorescence confocal microscopic analysis; assay type: cell-based
[6] = Cytotoxicity against HUVEC measured after 72 hrs by MTT assay; assay type: toxicity, cell-based; conditions: human, HUVEC cells
Tubulin (Sus scrofa) = Tubulin (Sus scrofa) (UniProt P02554+P02550); assay: Inhibition of porcine brain tubulin polymerization assessed as inhibition of microtubule polymerization measured at 1 min interval for 90 mins by microplate reader method; conditions: dose 12.5-25 µM, DDE = dose-dependent effect
HT-29 [7] = assay: Antiproliferative activity against human HT-29 cells over expressing GLUT1 assessed as cell viability at 4 uM measured after 48 hrs in presence of GLUT1-specific inhibitor quercetin by MTT assay relative to control; assay type: functional; conditions: read-out: Activity
Tubulin (Homo sapiens) [8] = biological target: T1, Tubulin (Homo sapiens); assay: Inhibition of tubulin polymerization in human A549 cells assessed as appearance of wrapped microtubule around nucleus at 0.766 uM measured after 24 hrs by immunofluorescence confocal microscopic analysis; assay type: cell-based
HT-29 [9] = assay: Antiproliferative activity against human HT-29 cells over expressing GLUT1 assessed as cell viability at 4 uM measured after 48 hrs by MTT assay relative to control; assay type: functional; conditions: read-out: Activity
HT-29 [10] = assay: Antiproliferative activity against human HT-29 cells over expressing GLUT1 assessed as cell viability at 8 uM measured after 48 hrs in presence of GLUT1-specific inhibitor quercetin by MTT assay relative to control; assay type: functional; conditions: read-out: Activity
HT-29 [11] = assay: Antiproliferative activity against human HT-29 cells over expressing GLUT1 assessed as cell viability measured after 48 hrs in presence of GLUT1-specific inhibitor quercetin by MTT assay relative to control; assay type: functional
HT-29 [12] = assay: Antiproliferative activity against human HT-29 cells over expressing GLUT1 assessed as cell viability measured after 48 hrs by MTT assay relative to control; assay type: functional

Sequence of Tubulin (Sus scrofa) (P02550 whole entry, looked up): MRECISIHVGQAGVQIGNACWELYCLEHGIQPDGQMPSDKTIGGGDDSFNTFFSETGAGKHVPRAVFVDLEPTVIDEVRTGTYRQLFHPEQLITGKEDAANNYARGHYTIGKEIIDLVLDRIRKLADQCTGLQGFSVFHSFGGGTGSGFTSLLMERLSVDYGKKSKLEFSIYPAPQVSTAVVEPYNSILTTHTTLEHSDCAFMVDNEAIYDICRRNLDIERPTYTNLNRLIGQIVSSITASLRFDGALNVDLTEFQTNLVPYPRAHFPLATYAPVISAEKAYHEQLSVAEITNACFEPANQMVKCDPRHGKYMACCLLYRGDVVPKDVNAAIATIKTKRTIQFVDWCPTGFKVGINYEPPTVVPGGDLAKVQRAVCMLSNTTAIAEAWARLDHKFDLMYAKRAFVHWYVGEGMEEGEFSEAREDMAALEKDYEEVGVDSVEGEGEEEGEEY
Sequence of Tubulin (Sus scrofa) (P02554 whole entry, looked up): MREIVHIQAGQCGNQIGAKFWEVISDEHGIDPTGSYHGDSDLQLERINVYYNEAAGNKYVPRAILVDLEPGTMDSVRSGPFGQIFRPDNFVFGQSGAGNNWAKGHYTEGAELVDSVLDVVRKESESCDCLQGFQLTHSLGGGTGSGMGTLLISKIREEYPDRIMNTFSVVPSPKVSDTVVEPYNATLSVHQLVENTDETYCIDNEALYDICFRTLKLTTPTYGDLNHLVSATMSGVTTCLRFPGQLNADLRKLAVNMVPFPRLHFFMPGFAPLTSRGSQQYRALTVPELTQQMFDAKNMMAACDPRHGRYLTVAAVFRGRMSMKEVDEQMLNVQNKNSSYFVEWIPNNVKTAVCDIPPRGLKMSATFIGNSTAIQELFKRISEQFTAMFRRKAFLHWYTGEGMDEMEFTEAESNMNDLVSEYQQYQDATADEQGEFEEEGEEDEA

Compound | IC50 (HT-29 [1]) | IC50 (MCF7) | IC50 (Hep 3B2) | Ratio IC50 [2] | Ratio IC50 [3] | also measured
COc1cc2c(c(OC)c1OC)-c1ccc(OC)c(=O)cc1[C@@H](NC(=O)CSCC(=O)OC[C@H]1OC(O)[C@H](O)[C@@H](O)[C@@H]1O)CC2 (some centres not stated) | 1.16 µM | 3.56 µM | 9.26 µM | 2.6 | 7.98 | –
COc1cc2c(c(OC)c1OC)-c1ccc(OC)c(=O)cc1[C@@H](NC(C)=O)CC2 [COLCHICINE] | – | 0.043 µM | 0.14 µM | – | – | Activity (HT-29 [11]): 14.8%; Activity (HT-29 [12]): 12.7%; IC50 at 72 h [6]: 0.012 µM
COc1cc2c(c(OC)c1OC)-c1ccc(OC)c(=O)cc1[C@@H](NC(=O)CCCCC(=O)OC[C@H]1OC(O)[C@H](O)[C@@H](O)[C@@H]1O)CC2 (some centres not stated) | 9.73 µM | > 10 µM | > 10 µM | – | – | –
COc1cc2c(c(OC)c1OC)-c1ccc(OC)c(=O)cc1[C@@H](NC(=O)CSCC(=O)OC[C@H]1OC(O)[C@@H](O)[C@@H](O)[C@@H]1O)CC2 (some centres not stated) | 2.11 µM | 6.05 µM | > 10 µM | – | – | –
COc1cc2c(c(OC)c1OC)-c1ccc(OC)c(=O)cc1[C@@H](NC(=O)CCCC(=O)OC[C@H]1OC(O)[C@@H](O)[C@@H](O)[C@@H]1O)CC2 (some centres not stated) | > 10 µM | > 10 µM | > 10 µM | – | – | –
COc1cc2c(c(OC)c1OC)-c1ccc(OC)c(=O)cc1[C@@H](NC(=O)CCCC(=O)OC[C@H]1OC(O)[C@H](O)[C@@H](O)[C@@H]1O)CC2 (some centres not stated) | 4.14 µM | > 10 µM | > 10 µM | – | – | –
COc1cc2c(c(OC)c1OC)-c1ccc(OC)c(=O)cc1[C@@H](NC(=O)CCCCC(=O)OC[C@H]1OC(O)[C@@H](O)[C@@H](O)[C@@H]1O)CC2 (some centres not stated) | > 10 µM | > 10 µM | > 10 µM | – | – | –

Second part, led by results:

IC50 (HT-29 [1]) | IC50 (MCF7) | Compound | IC50 (Hep 3B2) | Ratio IC50 [2] | Ratio IC50 [3] | also measured
> 10 µM | > 10 µM | COc1cc2c(c(OC)c1OC)-c1ccc(OC)c(=O)cc1[C@@H](NC(=O)CCCCC(=O)O[C@H]1[C@H](O)[C@@H](CO)OC(O)[C@@H]1O)CC2 (some centres not stated) | > 10 µM | – | – | –
0.79 µM | 0.65 µM | COc1cc2c(c(OC)c1OC)-c1ccc(OC)c(=O)cc1[C@@H](NC(=O)CSCC(=O)O[C@H]1[C@H](O)[C@@H](CO)OC(O)[C@@H]1O)CC2 (some centres not stated) | 8.56 µM | 13.17 | 10.84 | viability at 8 µM (HT-29 [4]): 12.5%; inhibition (Tubulin (Homo sapiens) [5]): Active; IC50 at 72 h [6]: 1.88 µM; inhibition (Tubulin (Sus scrofa)): Dde; viability at 4 µM (HT-29 [7]): 22.8%; inhibition (Tubulin (Homo sapiens) [8]): Active; viability at 4 µM (HT-29 [9]): 13.2%; viability at 8 µM (HT-29 [10]): 20.1%
0.98 µM | 0.76 µM | COc1cc2c(c(OC)c1OC)-c1ccc(OC)c(=O)cc1[C@@H](NC(=O)CCC(=O)O[C@H]1[C@H](O)[C@@H](CO)OC(O)[C@@H]1O)CC2 (some centres not stated) | 7.03 µM | 9.25 | 7.17 | –
0.24 µM | 3.08 µM | COc1cc2c(c(OC)c1OC)-c1ccc(OC)c(=O)cc1[C@@H](NC(=O)COCC(=O)OC[C@H]1OC(O)[C@H](O)[C@@H](O)[C@@H]1O)CC2 (some centres not stated) | 4.57 µM | 1.48 | 19.04 | –
1.09 µM | 1.15 µM | COc1cc2c(c(OC)c1OC)-c1ccc(OC)c(=O)cc1[C@@H](NC(=O)CCC(=O)OC[C@H]1OC(O)[C@H](O)[C@@H](O)[C@@H]1O)CC2 (some centres not stated) | 6.35 µM | 5.52 | 5.83 | –
6.47 µM | 7.17 µM | COc1cc2c(c(OC)c1OC)-c1ccc(OC)c(=O)cc1[C@@H](NC(=O)CCCC(=O)O[C@H]1[C@H](O)[C@@H](CO)OC(O)[C@@H]1O)CC2 (some centres not stated) | 8.91 µM | 1.24 | 1.38 | –
– | 0.67 µM | COc1cc2c(c(OC)c1OC)-c1ccc(OC)c(=O)cc1[C@@H](NC(=O)CCC(=O)OC[C@H]1OC(O)[C@@H](O)[C@@H](O)[C@@H]1O)CC2 (some centres not stated) | 2.91 µM | 4.34 | – | –
2.93 µM | 2.2 µM | COc1cc2c(c(OC)c1OC)-c1ccc(OC)c(=O)cc1[C@@H](NC(=O)COCC(=O)OC[C@H]1OC(O)[C@@H](O)[C@@H](O)[C@@H]1O)CC2 (some centres not stated) | 6.43 µM | 2.92 | 2.19 | –
0.83 µM | 1.2 µM | COc1cc2c(c(OC)c1OC)-c1ccc(OC)c(=O)cc1[C@@H](NC(=O)COCC(=O)O[C@H]1[C@H](O)[C@@H](CO)OC(O)[C@@H]1O)CC2 (some centres not stated) | > 10 µM | – | – | –

Source: ChEMBL document CHEMBL5154756 (Bioorg Med Chem, 2022)
